The source of these data is PubChem BioAssay (NCI).

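Method: 48-hour compound exposure of cells in 96-well plates, five concentrations, linear interpolation of endpoints. Definition used: TGI = concentration required for complete inhibition of growth.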

One experiment deals with SR leukemia. Put plainly: NCI-60 cell line screen, 48 h.
`Cc1nnc2n1-c1ccccc1N(Cc1ccccc1)CC2` yielded a TGI of over 100 µM.
Compound `CC(C)(C)c1cc(/C=C2/NC(=O)NC2=O)cc(C(C)(C)C)c1O` gave a TGI of 33.2 µM.
The same measure, in the same setting: with `Cc1cnc2[nH]c(-c3cccc(F)c3)cc(=O)c2c1` the figure was 0.378 µM; with `O=C(/C=C\Nc1ccccc1O)C(F)(F)F`, over 100 µM; with `CC1(C)OC[C@@H](C[C@H](O)COCc2ccccc2)O1`, over 100 µM.
Still for that read-out and setting: the result for `NC(N)=NS(=O)(=O)c1ccc(NC(=O)c2cccc3c(NNc4ccc(S(N)(=O)=O)cc4)c4ccccc4nc23)cc1` reads 82.6 µM.
As to `Nc1nncc2[nH]cnc12`, the TGI was over 100 µM.
With `S=c1[nH]nc(Cn2c3ccc(Br)cc3c3nc4ccccc4nc32)n1C1CCCCC1`, the TGI was found to be 60.6 µM.
`COc1ccc2c(c1)-c1c(c3cc(OC)ccc3n1CCN(C)C)CC2`: the TGI stood at 25.1 µM.
Compound `CCCCCCc1cc2cc(-c3csc(-c4ccc(OC)cc4)n3)c(=O)oc2cc1O` returned a TGI of over 100 µM.
Same read-out and setting: with `COc1ccc(C2=C(Cl)C(=O)O/C2=C\c2ccc(OC)c(Br)c2)cc1Cl` the figure was over 100 µM; with `CNC(=S)NNc1ncnc2c1c(-c1ccc(Cl)cc1)cn2-c1ccc(C)cc1`, over 100 µM; with `CCCCCCCCCCCCNC(=O)CCC(NC(=O)c1ccc(N(C)Cc2cnc3nc(N)nc(N)c3n2)cc1)C(=O)NCCCCCCCCCCCC` (configuration not stated), 32.3 µM.
As for `O=C1c2cccnc2S(=O)(=O)N1c1ccc([N+](=O)[O-])cc1`, the TGI was over 100 µM.

The subject of another experiment is U251 CNS. Put plainly: NCI-60 cell line screen, 48 h.
With `O=CN1CCN(C(=O)c2ccco2)C1=S`, the TGI stood at 32.5 µM.
On the same count and under the same terms, the result for `CC(=O)C1(O)CCC2(O)C3(O)CC=C4CC(O)CCC4(C)C3CC(OC(=O)c3ccc(O)cc3)C12C` (configuration not stated) reads over 100 µM; that for `Cn1c2c(c3ccccc31)CCN1C(=O)C34CCCC3CC21S4` (configuration not stated), over 100 µM; that for `Clc1ccc(OCc2nnc(COc3ccc(OCc4nnc(COc5ccc(Cl)cc5Cl)o4)c(Cl)c3)o2)c(Cl)c1`, 54.7 µM.
Same read-out and setting: the result for `O=C1/C(=C/c2ccncc2)C(n2cccc2)c2c(Br)sc(Br)c21` (configuration not stated) reads 4.86 µM; that for `COCC#C[C@@]1(O)CCCCC1CC(OC)OC` (some centres not stated), over 100 µM; that for `C=C1CC(COc2ccc3c(C)c(C)c(=O)oc3c2C)(c2ccccc2)OC1=O` (configuration not stated), 20.3 µM.
Take `CC(=O)OCC(=O)O[C@@H]1[C@H]2[C@@H](OC(=O)c3ccccc3)[C@@H](C)C[C@]2(O)[C@H](OC(C)=O)[C@@]2(C)C[C@]1(OC(C)=O)C[C@H]1C(=O)C(C)(C)[C@@H](OC(C)=O)[C@@H]12`: the TGI is over 25 µM.
For `O=C(Sc1c(-c2ccccc2)c(=O)n(-c2ccccc2)c(=S)n1-c1ccccc1)c1ccco1`, the TGI is over 100 µM.
Still for that read-out and setting: the result for `Cn1nc2c(c1N)Cc1c(nn(C)c1N)-c1ccccc1-2` reads over 100 µM.
Same read-out and setting: with `COC(=O)C1=C(C(=O)OC)SC(=C2SC3=C(SC(=C4SCCS4)S3)S2)S1` the figure was over 100 µM; with `c1c(N2CCOCC2)ssc1=[N+]1CCOCC1`, over 100 µM; with `Cc1nnc2n1-c1ccccc1N(Cc1ccccc1)CC2`, over 100 µM.
On the same count and under the same terms, the result for `CC(C)(C)c1cc(/C=C2/NC(=O)NC2=O)cc(C(C)(C)C)c1O` reads 25.8 µM; that for `Cc1cnc2[nH]c(-c3cccc(F)c3)cc(=O)c2c1`, over 100 µM.
In turn, `O=C(/C=C\Nc1ccccc1O)C(F)(F)F` came in with a TGI of over 100 µM.
Still for that read-out and setting: with `CC1(C)OC[C@@H](C[C@H](O)COCc2ccccc2)O1` the figure was over 100 µM.
Consider `NC(N)=NS(=O)(=O)c1ccc(NC(=O)c2cccc3c(NNc4ccc(S(N)(=O)=O)cc4)c4ccccc4nc23)cc1`, for which the TGI is over 100 µM.
`Nc1nncc2[nH]cnc12`: the TGI was over 100 µM.
`S=c1[nH]nc(Cn2c3ccc(Br)cc3c3nc4ccccc4nc32)n1C1CCCCC1` showed a TGI of over 67.6 µM.
Take `COc1ccc2c(c1)-c1c(c3cc(OC)ccc3n1CCN(C)C)CC2`: the TGI amounted to 24.8 µM.
As to `CCCCCCc1cc2cc(-c3csc(-c4ccc(OC)cc4)n3)c(=O)oc2cc1O`, the TGI is 18.7 µM.
The same measure, in the same setting: with `COc1ccc(C2=C(Cl)C(=O)O/C2=C\c2ccc(OC)c(Br)c2)cc1Cl` the figure was 36.6 µM.
As for `CNC(=S)NNc1ncnc2c1c(-c1ccc(Cl)cc1)cn2-c1ccc(C)cc1`, the TGI worked out at 24.1 µM.
In turn, `CCCCCCCCCCCCNC(=O)CCC(NC(=O)c1ccc(N(C)Cc2cnc3nc(N)nc(N)c3n2)cc1)C(=O)NCCCCCCCCCCCC` (configuration not stated) had a TGI of 24.7 µM.
`O=C1c2cccnc2S(=O)(=O)N1c1ccc([N+](=O)[O-])cc1` came in with a TGI of over 100 µM.

A further experiment deals with UACC-257 melanoma. Put plainly: NCI-60 cell line screen, 48 h.
The compound `O=CN1CCN(C(=O)c2ccco2)C1=S` registered a TGI of 33 µM.
Regarding `CC(=O)C1(O)CCC2(O)C3(O)CC=C4CC(O)CCC4(C)C3CC(OC(=O)c3ccc(O)cc3)C12C` (configuration not stated), the TGI is over 100 µM.
The compound `Cn1c2c(c3ccccc31)CCN1C(=O)C34CCCC3CC21S4` (configuration not stated) gave a TGI of over 100 µM.
The same measure, in the same setting: the result for `Clc1ccc(OCc2nnc(COc3ccc(OCc4nnc(COc5ccc(Cl)cc5Cl)o4)c(Cl)c3)o2)c(Cl)c1` reads over 100 µM; that for `O=C1/C(=C/c2ccncc2)C(n2cccc2)c2c(Br)sc(Br)c21` (configuration not stated), 5.03 µM; that for `COCC#C[C@@]1(O)CCCCC1CC(OC)OC` (some centres not stated), over 100 µM.
Same read-out and setting: with `C=C1CC(COc2ccc3c(C)c(C)c(=O)oc3c2C)(c2ccccc2)OC1=O` (configuration not stated) the figure was 2.14 µM.
On the same count and under the same terms, with `CC(=O)OCC(=O)O[C@@H]1[C@H]2[C@@H](OC(=O)c3ccccc3)[C@@H](C)C[C@]2(O)[C@H](OC(C)=O)[C@@]2(C)C[C@]1(OC(C)=O)C[C@H]1C(=O)C(C)(C)[C@@H](OC(C)=O)[C@@H]12` the figure was over 25 µM; with `O=C(Sc1c(-c2ccccc2)c(=O)n(-c2ccccc2)c(=S)n1-c1ccccc1)c1ccco1`, over 31.6 µM.
`Cn1nc2c(c1N)Cc1c(nn(C)c1N)-c1ccccc1-2` yielded a TGI of over 100 µM.
Regarding `COC(=O)C1=C(C(=O)OC)SC(=C2SC3=C(SC(=C4SCCS4)S3)S2)S1`, the TGI is over 100 µM.
Regarding `CCC(=O)Nc1ccc(NS(=O)(=O)c2ccc(Cl)cc2)cc1`, the TGI was over 100 µM.
As to `c1c(N2CCOCC2)ssc1=[N+]1CCOCC1`, the TGI is over 100 µM.
For `Cc1nnc2n1-c1ccccc1N(Cc1ccccc1)CC2`, the TGI is over 100 µM.
The same measure, in the same setting: with `CC(C)(C)c1cc(/C=C2/NC(=O)NC2=O)cc(C(C)(C)C)c1O` the figure was 29.9 µM; with `Cc1cnc2[nH]c(-c3cccc(F)c3)cc(=O)c2c1`, over 100 µM; with `O=C(/C=C\Nc1ccccc1O)C(F)(F)F`, over 100 µM.
Take `CC1(C)OC[C@@H](C[C@H](O)COCc2ccccc2)O1`: the TGI is over 100 µM.
For the compound `NC(N)=NS(=O)(=O)c1ccc(NC(=O)c2cccc3c(NNc4ccc(S(N)(=O)=O)cc4)c4ccccc4nc23)cc1`, the TGI was over 100 µM.
Take `Nc1nncc2[nH]cnc12`: the TGI is over 100 µM.
For the compound `S=c1[nH]nc(Cn2c3ccc(Br)cc3c3nc4ccccc4nc32)n1C1CCCCC1`, the TGI is over 100 µM.
Still for that read-out and setting: the result for `COc1ccc2c(c1)-c1c(c3cc(OC)ccc3n1CCN(C)C)CC2` reads 29.4 µM; that for `CCCCCCc1cc2cc(-c3csc(-c4ccc(OC)cc4)n3)c(=O)oc2cc1O`, 32.6 µM; that for `COc1ccc(C2=C(Cl)C(=O)O/C2=C\c2ccc(OC)c(Br)c2)cc1Cl`, over 100 µM.
Same read-out and setting: the result for `CNC(=S)NNc1ncnc2c1c(-c1ccc(Cl)cc1)cn2-c1ccc(C)cc1` reads 27 µM; that for `CCCCCCCCCCCCNC(=O)CCC(NC(=O)c1ccc(N(C)Cc2cnc3nc(N)nc(N)c3n2)cc1)C(=O)NCCCCCCCCCCCC` (configuration not stated), over 100 µM.
In the case of `O=C1c2cccnc2S(=O)(=O)N1c1ccc([N+](=O)[O-])cc1`, the TGI is over 100 µM.
